What follows are compounds tested against T1, 5-hydroxytryptamine receptor 1A (Rattus norvegicus, UniProt P19327) (assay: Binding affinity towards rat 5-hydroxytryptamine 1A receptor using [3H]8-OH-DPAT radioligand.).
T1 sequence (P19327 whole entry): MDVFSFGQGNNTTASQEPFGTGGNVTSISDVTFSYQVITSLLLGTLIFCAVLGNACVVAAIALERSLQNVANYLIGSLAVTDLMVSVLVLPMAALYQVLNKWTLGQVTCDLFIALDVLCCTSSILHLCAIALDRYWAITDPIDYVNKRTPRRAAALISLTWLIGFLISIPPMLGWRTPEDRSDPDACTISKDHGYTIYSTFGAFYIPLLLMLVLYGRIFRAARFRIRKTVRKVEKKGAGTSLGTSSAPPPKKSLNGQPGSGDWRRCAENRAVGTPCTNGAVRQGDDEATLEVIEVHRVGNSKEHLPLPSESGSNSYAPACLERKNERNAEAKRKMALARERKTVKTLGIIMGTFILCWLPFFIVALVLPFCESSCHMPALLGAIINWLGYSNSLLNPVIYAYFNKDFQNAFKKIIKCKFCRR

Ki | SMILES
> 10000 nM | O=C1C2CCCN2C(=O)N1CCN1CCN(c2ccc(F)cc2)CC1 (centres undefined)
24.8 nM | O=C1C2CCCN2C(=O)N1CCCCN1CCN(c2ccccc2)CC1 (centres undefined)
4.1 nM | COc1ccccc1N1CCN(CCCN2C(=O)C3CCCCN3C2=O)CC1 (centres undefined)
53.6 nM | O=C1C2CCCCN2C(=O)N1CCCN1CCN(c2cccc(Cl)c2)CC1 (centres undefined)
> 1000 nM | O=C1C2CCCCN2C(=O)N1CCCCN1CCN(c2ccc([N+](=O)[O-])cc2)CC1 (centres undefined)
598 nM | O=C1C2CCCCN2C(=O)N1CCCN1CCN(c2ccc(F)cc2)CC1 (centres undefined)
5.7 nM | O=C1C2CCCCN2C(=O)N1CCCN1CCN(c2cccc(C(F)(F)F)c2)CC1 (centres undefined)
> 10000 nM | O=C1C2CCCN2C(=O)N1CCCN1CCN(c2ccc([N+](=O)[O-])cc2)CC1 (centres undefined)
85.3 nM | O=C1C2CCCN2C(=O)N1CN1CCN(c2ccccc2)CC1 (centres undefined)
34.9 nM | COc1ccccc1N1CCN(CN2C(=O)C3CCCN3C2=O)CC1 (centres undefined)
128 nM | O=C1C2CCCCN2C(=O)N1CCN1CCN(c2cccc(Cl)c2)CC1 (centres undefined)
234 nM | COc1ccccc1N1CCN(CCN2C(=O)C3CCCN3C2=O)CC1 (centres undefined)
> 10000 nM | O=C1C2CCCN2C(=O)N1CCN1CCN(c2ccc([N+](=O)[O-])cc2)CC1 (centres undefined)
> 1000 nM | O=C1C2CCCN2C(=O)N1CCCN1CCN(c2ccc(F)cc2)CC1 (centres undefined)
418 nM | O=C1C2CCCN2C(=O)N1CCN1CCN(c2cccc(Cl)c2)CC1 (centres undefined)
> 1000 nM | O=C1C2CCCCN2C(=O)N1CN1CCN(c2ccc([N+](=O)[O-])cc2)CC1 (centres undefined)
8.8 nM | COc1ccccc1N1CCN(CCCCN2C(=O)C3CCCCN3C2=O)CC1 (centres undefined)
89.9 nM | O=C1C2CCCN2C(=O)N1CCCCN1CCN(c2ccc(F)cc2)CC1 (centres undefined)
2.4 nM | O=C1C2CCCN2C(=O)N1CCCCN1CCN(c2cccc(C(F)(F)F)c2)CC1 (centres undefined)
> 1000 nM | O=C1C2CCCN2C(=O)N1CCCCN1CCN(c2ccc([N+](=O)[O-])cc2)CC1 (centres undefined)
123 nM | O=C1C2CCCN2C(=O)N1CCN1CCN(c2cccc(C(F)(F)F)c2)CC1 (centres undefined)

SMILES | Ki
O=C1C2CCCCN2C(=O)N1CN1CCN(c2ccc(F)cc2)CC1 (centres undefined) | 444 nM

Each compound was assayed against D(2) dopamine receptor (Rattus norvegicus, UniProt P61169) (assay: Binding affinity towards dopamine receptor D2 using [3H]-raclopride radioligand.).
D(2) dopamine receptor, sequence (P61169 whole entry): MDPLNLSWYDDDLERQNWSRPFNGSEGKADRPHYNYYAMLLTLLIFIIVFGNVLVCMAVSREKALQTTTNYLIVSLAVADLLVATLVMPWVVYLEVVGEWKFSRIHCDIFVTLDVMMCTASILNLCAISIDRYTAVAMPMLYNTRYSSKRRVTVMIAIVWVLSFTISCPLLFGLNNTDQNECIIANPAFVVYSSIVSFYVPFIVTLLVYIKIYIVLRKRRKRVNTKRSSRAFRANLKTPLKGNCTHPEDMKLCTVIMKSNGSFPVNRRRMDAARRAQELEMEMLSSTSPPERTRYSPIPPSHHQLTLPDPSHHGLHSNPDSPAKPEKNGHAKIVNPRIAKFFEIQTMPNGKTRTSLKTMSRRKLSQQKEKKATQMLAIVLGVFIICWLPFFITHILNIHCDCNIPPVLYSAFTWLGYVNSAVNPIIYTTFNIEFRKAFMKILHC

Ki | SMILES
> 1000 nM | O=C1C2CCCCN2C(=O)N1CCCCN1CCN(c2ccccc2)CC1 (centres undefined)
> 10000 nM | O=C1C2CCCN2C(=O)N1CCN1CCN(c2ccc(F)cc2)CC1 (centres undefined)
416 nM | O=C1C2CCCN2C(=O)N1CCCCN1CCN(c2ccccc2)CC1 (centres undefined)
> 1000 nM | COc1ccccc1N1CCN(CCCN2C(=O)C3CCCCN3C2=O)CC1 (centres undefined)
> 1000 nM | O=C1C2CCCCN2C(=O)N1CCCN1CCN(c2cccc(Cl)c2)CC1 (centres undefined)
> 1000 nM | O=C1C2CCCCN2C(=O)N1CCCCN1CCN(c2ccc([N+](=O)[O-])cc2)CC1 (centres undefined)
> 1000 nM | O=C1C2CCCCN2C(=O)N1CCCN1CCN(c2ccc(F)cc2)CC1 (centres undefined)
> 1000 nM | O=C1C2CCCCN2C(=O)N1CCCN1CCN(c2cccc(C(F)(F)F)c2)CC1 (centres undefined)
> 10000 nM | O=C1C2CCCN2C(=O)N1CCCN1CCN(c2ccc([N+](=O)[O-])cc2)CC1 (centres undefined)
> 10000 nM | O=C1C2CCCN2C(=O)N1CN1CCN(c2ccccc2)CC1 (centres undefined)
> 1000 nM | COc1ccccc1N1CCN(CN2C(=O)C3CCCN3C2=O)CC1 (centres undefined)
> 1000 nM | O=C1C2CCCCN2C(=O)N1CCN1CCN(c2cccc(Cl)c2)CC1 (centres undefined)
361 nM | COc1ccccc1N1CCN(CCN2C(=O)C3CCCN3C2=O)CC1 (centres undefined)
> 10000 nM | O=C1C2CCCN2C(=O)N1CCN1CCN(c2ccc([N+](=O)[O-])cc2)CC1 (centres undefined)
> 1000 nM | O=C1C2CCCN2C(=O)N1CCCN1CCN(c2ccc(F)cc2)CC1 (centres undefined)
> 1000 nM | O=C1C2CCCN2C(=O)N1CCN1CCN(c2cccc(Cl)c2)CC1 (centres undefined)
> 10000 nM | O=C1C2CCCCN2C(=O)N1CN1CCN(c2ccc([N+](=O)[O-])cc2)CC1 (centres undefined)
> 1000 nM | COc1ccccc1N1CCN(CCCCN2C(=O)C3CCCCN3C2=O)CC1 (centres undefined)
> 1000 nM | O=C1C2CCCN2C(=O)N1CCCCN1CCN(c2ccc(F)cc2)CC1 (centres undefined)
> 1000 nM | O=C1C2CCCN2C(=O)N1CCCCN1CCN(c2cccc(C(F)(F)F)c2)CC1 (centres undefined)
> 1000 nM | O=C1C2CCCN2C(=O)N1CCCCN1CCN(c2ccc([N+](=O)[O-])cc2)CC1 (centres undefined)
> 1000 nM | O=C1C2CCCN2C(=O)N1CCN1CCN(c2cccc(C(F)(F)F)c2)CC1 (centres undefined)
64 nM | COc1ccccc1N1CCN(CCCCN2C(=O)c3ccccc3C2=O)CC1 [NAN-190]

SMILES | Ki
O=C1C2CCCCN2C(=O)N1CN1CCN(c2ccc(F)cc2)CC1 (centres undefined) | > 10000 nM

These compounds were tested against T2, Adrenergic receptor alpha-1 (Rattus norvegicus, UniProt P15823+P23944+P43140) (assay: Binding affinity towards alpha-1 adrenergic receptor using [3H]prazosin radioligand.).
T2 sequence (P15823 whole entry): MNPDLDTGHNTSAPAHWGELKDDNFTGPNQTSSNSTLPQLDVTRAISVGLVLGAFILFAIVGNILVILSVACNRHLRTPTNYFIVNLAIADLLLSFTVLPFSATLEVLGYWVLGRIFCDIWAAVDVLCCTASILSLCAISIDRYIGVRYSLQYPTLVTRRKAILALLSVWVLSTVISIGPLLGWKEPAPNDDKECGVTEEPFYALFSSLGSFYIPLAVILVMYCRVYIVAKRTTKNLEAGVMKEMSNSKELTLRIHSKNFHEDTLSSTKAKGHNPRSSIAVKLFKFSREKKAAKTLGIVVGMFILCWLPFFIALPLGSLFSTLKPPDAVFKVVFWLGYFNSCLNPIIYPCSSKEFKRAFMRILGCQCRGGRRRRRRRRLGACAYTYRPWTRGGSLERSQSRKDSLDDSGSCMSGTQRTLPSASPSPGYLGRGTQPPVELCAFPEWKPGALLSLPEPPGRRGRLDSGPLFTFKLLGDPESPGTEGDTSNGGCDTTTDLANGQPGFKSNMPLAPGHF
T2 sequence (P23944 whole entry): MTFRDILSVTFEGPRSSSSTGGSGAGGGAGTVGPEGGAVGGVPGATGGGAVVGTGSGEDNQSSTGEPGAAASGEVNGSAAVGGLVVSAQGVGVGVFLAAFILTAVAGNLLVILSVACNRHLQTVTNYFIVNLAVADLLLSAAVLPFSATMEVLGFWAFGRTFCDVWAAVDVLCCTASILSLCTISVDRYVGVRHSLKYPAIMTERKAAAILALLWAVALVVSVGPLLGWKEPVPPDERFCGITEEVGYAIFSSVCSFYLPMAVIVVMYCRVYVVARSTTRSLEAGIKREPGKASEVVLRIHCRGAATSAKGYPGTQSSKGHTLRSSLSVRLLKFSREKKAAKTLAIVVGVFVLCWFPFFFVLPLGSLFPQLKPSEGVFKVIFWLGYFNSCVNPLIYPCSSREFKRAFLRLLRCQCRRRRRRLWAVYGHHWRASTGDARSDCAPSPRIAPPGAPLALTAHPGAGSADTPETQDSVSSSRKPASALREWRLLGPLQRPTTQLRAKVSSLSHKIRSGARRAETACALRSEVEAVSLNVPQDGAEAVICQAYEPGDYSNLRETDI
T2 sequence (P43140 whole entry): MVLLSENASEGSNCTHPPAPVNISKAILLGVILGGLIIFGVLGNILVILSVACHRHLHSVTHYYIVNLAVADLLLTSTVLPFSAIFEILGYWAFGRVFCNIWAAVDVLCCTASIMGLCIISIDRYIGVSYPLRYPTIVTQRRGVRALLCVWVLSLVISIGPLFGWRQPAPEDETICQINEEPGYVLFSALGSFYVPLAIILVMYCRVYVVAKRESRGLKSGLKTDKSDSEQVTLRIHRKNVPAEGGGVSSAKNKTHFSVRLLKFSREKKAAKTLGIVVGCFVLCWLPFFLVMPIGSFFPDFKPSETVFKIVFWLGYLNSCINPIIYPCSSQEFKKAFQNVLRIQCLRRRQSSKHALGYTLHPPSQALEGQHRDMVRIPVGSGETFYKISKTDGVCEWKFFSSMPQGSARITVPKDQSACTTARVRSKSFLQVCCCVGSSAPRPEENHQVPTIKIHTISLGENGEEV
Format: protein assay

Ki | SMILES
18.6 nM | O=C1C2CCCCN2C(=O)N1CCCCN1CCN(c2ccccc2)CC1 (centres undefined)
> 1000 nM | O=C1C2CCCN2C(=O)N1CCN1CCN(c2ccc(F)cc2)CC1 (centres undefined)
26.4 nM | O=C1C2CCCN2C(=O)N1CCCCN1CCN(c2ccccc2)CC1 (centres undefined)
9.9 nM | COc1ccccc1N1CCN(CCCN2C(=O)C3CCCCN3C2=O)CC1 (centres undefined)
17.9 nM | O=C1C2CCCCN2C(=O)N1CCCN1CCN(c2cccc(Cl)c2)CC1 (centres undefined)
> 1000 nM | O=C1C2CCCCN2C(=O)N1CCCCN1CCN(c2ccc([N+](=O)[O-])cc2)CC1 (centres undefined)
25.8 nM | O=C1C2CCCCN2C(=O)N1CCCN1CCN(c2ccc(F)cc2)CC1 (centres undefined)
90.4 nM | O=C1C2CCCCN2C(=O)N1CCCN1CCN(c2cccc(C(F)(F)F)c2)CC1 (centres undefined)
> 1000 nM | O=C1C2CCCN2C(=O)N1CCCN1CCN(c2ccc([N+](=O)[O-])cc2)CC1 (centres undefined)
1000 nM | O=C1C2CCCN2C(=O)N1CN1CCN(c2ccccc2)CC1 (centres undefined)
500 nM | COc1ccccc1N1CCN(CN2C(=O)C3CCCN3C2=O)CC1 (centres undefined)
375 nM | O=C1C2CCCCN2C(=O)N1CCN1CCN(c2cccc(Cl)c2)CC1 (centres undefined)
190 nM | COc1ccccc1N1CCN(CCN2C(=O)C3CCCN3C2=O)CC1 (centres undefined)
> 10000 nM | O=C1C2CCCN2C(=O)N1CCN1CCN(c2ccc([N+](=O)[O-])cc2)CC1 (centres undefined)
25.2 nM | O=C1C2CCCN2C(=O)N1CCCN1CCN(c2ccc(F)cc2)CC1 (centres undefined)
500 nM | O=C1C2CCCN2C(=O)N1CCN1CCN(c2cccc(Cl)c2)CC1 (centres undefined)
> 10000 nM | O=C1C2CCCCN2C(=O)N1CN1CCN(c2ccc([N+](=O)[O-])cc2)CC1 (centres undefined)
8.6 nM | COc1ccccc1N1CCN(CCCCN2C(=O)C3CCCCN3C2=O)CC1 (centres undefined)
47.2 nM | O=C1C2CCCN2C(=O)N1CCCCN1CCN(c2ccc(F)cc2)CC1 (centres undefined)
64.9 nM | O=C1C2CCCN2C(=O)N1CCCCN1CCN(c2cccc(C(F)(F)F)c2)CC1 (centres undefined)
247 nM | O=C1C2CCCN2C(=O)N1CCCCN1CCN(c2ccc([N+](=O)[O-])cc2)CC1 (centres undefined)
> 1000 nM | O=C1C2CCCN2C(=O)N1CCN1CCN(c2cccc(C(F)(F)F)c2)CC1 (centres undefined)

SMILES | Ki
O=C1C2CCCCN2C(=O)N1CN1CCN(c2ccc(F)cc2)CC1 (centres undefined) | 869 nM

Source: ChEMBL document CHEMBL1129734, “Synthesis and structure-activity relationships of a new model of arylpiperazines. 1. 2-[[4-(o-methoxyphenyl)piperazin-1-yl]methyl]-1, 3-dioxoperhydroimidazo[1,5-alpha]pyridine: a selective 5-HT1A receptor agonist” (J Med Chem, 1996)
